Where a SMILES comes first, the peptide text is derived from it. [ ]: non-standard residue; d: D form. The star is where a group is joined. NHCH2CH2OH = OCCN*; For = O=C*

The subject of series [1] is P388 mouse leukemia cells. Conditions: 92 h. The procedure, abridged: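 First, library peptide stocks are diluted 250-fold in RPMI1640 with 10% heat-inactivated FBS. Next, they are mixed with P388 cells to give 1 × 10^4 cells/mL and incubated 92 h at 37 °C, 5% CO2. Finally, viability (%) is scored by WST-1 absorbance at 415 nm.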
Series [2] is described as follows: H+/Na+ transport assay of bead-derived peptides (one-point).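 Further: relative to parent gramicidin A activity set to 1.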 Type of series: biochemical. Set-up: key: relative activity; mean of two control wells = 1.00. As to conditions: bead-derived peptide solution, EYPC/EYPG LUVs. The gist of the method: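 Miniaturized 96-well format. LUVs with entrapped pyranine (1.0 mM) were exposed to peptide for 30 min at RT. Intensities were expressed relative to full lysis by Triton X-100 and no treatment, with control-well mean = 1.00.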

Series [3] has as its system Streptococcus pyogenes SSI-9. Nature of the series: Antibacterial activity assay of bead-derived peptides (three concentrations). Type of series: cell-based. Set-up: key: +++: inhibition by the 640-fold diluted peptide solution; ++: inhibition by the 160-fold diluted solution; +: inhibition by the 40-fold diluted solution; -: no inhibition. Conditions: S. pyogenes, bead-derived peptide solution, three concentrations. The gist of the method:
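Three stock dilutions per peptide (none, 4-fold, 16-fold in DMSO) are screened in 96-well format. The medium is blood-supplemented cation-adjusted MHB, inoculated with 2 × 10^5 CFU S. pyogenes SSI-9. Growth is read as cell precipitation at 18 h, 37 °C.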

For the molecule `CC(C)C[C@@H](NC(=O)[C@H](C)NC(=O)CNC(=O)[C@@H](NC=O)C(C)C)C(=O)N[C@@H](C)C(=O)N[C@H](CC(C)C)C(=O)N[C@H](C(=O)N[C@H](CC(C)C)C(=O)N[C@@H](Cc1c[nH]c2ccccc12)C(=O)N[C@@H](C(=O)N[C@@H](Cc1c[nH]c2ccccc12)C(=O)N[C@@H](C(=O)N[C@@H](Cc1c[nH]c2ccccc12)C(=O)N[C@@H](C(=O)N[C@@H](Cc1c[nH]c2ccccc12)C(=O)NCCO)C(C)C)C(C)C)[C@H](C)O)C(C)C` [compound 4532] (For-VGA[dL]A[dL]V[dL]W[dT]W[dV]W[dV]W-NHCH2CH2OH), the cell viability/% in series [1] stood at 100.0%. Also, in series [2], the “H+/Na+ transport activity normalized against the value of 1 (1.00)” value (“H+/Na+ transport activity normalized” for short) stood at 1.11. Also, the antibacterial activity entry in series [3] is reported as “-”.

For the molecule `CC(C)C[C@@H](NC(=O)[C@H](C)NC(=O)[C@H](NC(=O)[C@H](C)NC(=O)CNC(=O)[C@@H](NC=O)C(C)C)[C@H](C)O)C(=O)N[C@H](C(=O)N[C@H](CC(C)C)C(=O)N[C@@H](Cc1c[nH]c2ccccc12)C(=O)N[C@@H](C(=O)N[C@@H](Cc1c[nH]c2ccccc12)C(=O)N[C@H](CC(C)C)C(=O)N[C@@H](Cc1c[nH]c2ccccc12)C(=O)N[C@@H](C(=O)N[C@@H](Cc1c[nH]c2ccccc12)C(=O)NCCO)C(C)C)[C@H](C)O)C(C)C` [compound 4545] (For-VGA[dT]A[dL]V[dL]W[dT]W[dL]W[dV]W-NHCH2CH2OH), in series [1], the cell viability/% is 100.0%. The “H+/Na+ transport activity normalized” value in series [2] turned out to be 1.18. Further, the antibacterial activity entry in series [3] is “-”.

As to `CC(C)C[C@@H](NC(=O)[C@H](C)NC(=O)[C@H](NC(=O)[C@H](C)NC(=O)CNC(=O)[C@@H](NC=O)C(C)C)[C@H](C)O)C(=O)N[C@H](C(=O)N[C@@H](C(=O)N[C@@H](Cc1c[nH]c2ccccc12)C(=O)N[C@@H](C(=O)N[C@@H](Cc1c[nH]c2ccccc12)C(=O)N[C@H](CC(C)C)C(=O)N[C@@H](Cc1c[nH]c2ccccc12)C(=O)N[C@H](CC(C)C)C(=O)N[C@@H](Cc1c[nH]c2ccccc12)C(=O)NCCO)C(C)C)C(C)C)C(C)C` [compound 4652] (For-VGA[dT]A[dL]V[dV]W[dV]W[dL]W[dL]W-NHCH2CH2OH), the cell viability/% in series [1] is given as 100.0%. In addition, the “H+/Na+ transport activity normalized” value in series [2] stood at 1.03. For the same molecule, the antibacterial activity entry in series [3] is recorded as “-”.

In turn, `CC(C)C[C@@H](NC(=O)[C@H](C)NC(=O)CNC(=O)[C@@H](NC=O)C(C)C)C(=O)N[C@@H](C)C(=O)N[C@H](CC(C)C)C(=O)N[C@H](C(=O)N[C@@H](C(=O)N[C@@H](Cc1c[nH]c2ccccc12)C(=O)N[C@H](CC(C)C)C(=O)N[C@@H](Cc1c[nH]c2ccccc12)C(=O)N[C@H](CC(C)C)C(=O)N[C@@H](Cc1c[nH]c2ccccc12)C(=O)N[C@@H](C(=O)N[C@@H](Cc1c[nH]c2ccccc12)C(=O)NCCO)C(C)C)[C@H](C)O)C(C)C` [compound 4690] (For-VGA[dL]A[dL]V[dT]W[dL]W[dL]W[dV]W-NHCH2CH2OH) yielded a cell viability/% in series [1] of 100.0%. In addition, in series [2], the “H+/Na+ transport activity normalized” value was found to be 1.01. The antibacterial activity result in series [3] is “+”.

As to `CC(C)C[C@@H](NC(=O)[C@H](C)NC(=O)[C@H](NC(=O)[C@H](C)NC(=O)CNC(=O)[C@@H](NC=O)C(C)C)C(C)C)C(=O)N[C@H](C(=O)N[C@@H](C(=O)N[C@@H](Cc1c[nH]c2ccccc12)C(=O)N[C@@H](C(=O)N[C@@H](Cc1c[nH]c2ccccc12)C(=O)N[C@H](CC(C)C)C(=O)N[C@@H](Cc1c[nH]c2ccccc12)C(=O)N[C@@H](C(=O)N[C@@H](Cc1c[nH]c2ccccc12)C(=O)NCCO)C(C)C)C(C)C)[C@H](C)O)C(C)C` [compound 4710] (For-VGA[dV]A[dL]V[dT]W[dV]W[dL]W[dV]W-NHCH2CH2OH), in series [1], the cell viability/% worked out at 100.0%. In addition, the “H+/Na+ transport activity normalized” value in series [2] amounted to 1.06. In addition, the antibacterial activity entry in series [3] is reported as “-”.

Turning to `CC(C)C[C@@H](NC(=O)[C@H](C)NC(=O)CNC(=O)[C@@H](NC=O)C(C)C)C(=O)N[C@@H](C)C(=O)N[C@@H](C(=O)N[C@H](C(=O)N[C@@H](C(=O)N[C@@H](Cc1c[nH]c2ccccc12)C(=O)N[C@@H](C(=O)N[C@@H](Cc1c[nH]c2ccccc12)C(=O)N[C@@H](C(=O)N[C@@H](Cc1c[nH]c2ccccc12)C(=O)N[C@H](CC(C)C)C(=O)N[C@@H](Cc1c[nH]c2ccccc12)C(=O)NCCO)C(C)C)C(C)C)[C@H](C)O)C(C)C)C(C)C` [compound 4778] (For-VGA[dL]A[dV]V[dT]W[dV]W[dV]W[dL]W-NHCH2CH2OH), the cell viability/% in series [1] was determined as 100.0%. Moreover, the “H+/Na+ transport activity normalized” value in series [2] is given as 1.09. Moreover, in series [3], the antibacterial activity entry was “-”.

`CNC(=O)C[C@@H](NC(=O)[C@H](Cc1c[nH]c2ccccc12)NC(=O)[C@H](NC(=O)[C@H](Cc1c[nH]c2ccccc12)NC(=O)[C@H](NC(=O)[C@H](Cc1c[nH]c2ccccc12)NC(=O)[C@@H](CC(C)C)NC(=O)[C@@H](NC(=O)[C@H](NC(=O)[C@H](C)NC(=O)[C@@H](CC(C)C)NC(=O)[C@H](C)NC(=O)CNC(=O)[C@@H](NC=O)C(C)C)C(C)C)C(C)C)C(C)C)C(C)C)C(=O)N[C@@H](Cc1c[nH]c2ccccc12)C(=O)NCCO` [compound 4808] (For-VGA[dL]A[dV]V[dL]W[dV]W[dV]W[dD](NHMe)W-NHCH2CH2OH) showed a cell viability/% in series [1] of 100.0%. For the same molecule, the “H+/Na+ transport activity normalized” value in series [2] stood at 1.02. In addition, the antibacterial activity result in series [3] is reported as “-”.

As to `CC(C)C[C@@H](NC(=O)[C@H](Cc1c[nH]c2ccccc12)NC(=O)[C@H](NC(=O)[C@@H](NC(=O)[C@H](NC(=O)[C@H](C)NC(=O)[C@H](NC(=O)[C@H](C)NC(=O)CNC(=O)[C@@H](NC=O)C(C)C)C(C)C)C(C)C)C(C)C)C(C)C)C(=O)N[C@@H](Cc1c[nH]c2ccccc12)C(=O)N[C@@H](C(=O)N[C@@H](Cc1c[nH]c2ccccc12)C(=O)N[C@@H](C(=O)N[C@@H](Cc1c[nH]c2ccccc12)C(=O)NCCO)C(C)C)C(C)C` [compound 4830] (For-VGA[dV]A[dV]V[dV]W[dL]W[dV]W[dV]W-NHCH2CH2OH), the cell viability/% in series [1] was determined as 89.5%. For the same molecule, the “H+/Na+ transport activity normalized” value in series [2] worked out at 1.18. In series [3], the antibacterial activity result is recorded as “++”.

As for `CC(C)C[C@@H](NC(=O)[C@H](C)NC(=O)CNC(=O)[C@@H](NC=O)C(C)C)C(=O)N[C@@H](C)C(=O)N[C@@H](C(=O)N[C@H](C(=O)N[C@@H](C(=O)N[C@@H](Cc1c[nH]c2ccccc12)C(=O)N[C@@H](C(=O)N[C@@H](Cc1c[nH]c2ccccc12)C(=O)N[C@H](CC(C)C)C(=O)N[C@@H](Cc1c[nH]c2ccccc12)C(=O)N[C@@H](C(=O)N[C@@H](Cc1c[nH]c2ccccc12)C(=O)NCCO)C(C)C)C(C)C)C(C)C)C(C)C)C(C)C` [compound 4884] (For-VGA[dL]A[dV]V[dV]W[dV]W[dL]W[dV]W-NHCH2CH2OH), the cell viability/% in series [1] amounted to 49.1%. For the same molecule, in series [2], the “H+/Na+ transport activity normalized” value is listed as 1.27. For the same molecule, the antibacterial activity result in series [3] is “++”.

The record behind these values is publication PMC7531004, “Discovery of gramicidin A analogues with altered activities by multidimensional screening of a one-bead-one-compound library” (Nature Communications, 2020).
